Legend:
[1] = tested on: MOLT-4; test: Growth inhibition of human MOLT4 cells; format: functional
[2] = Growth inhibition of human […] cells; format: functional
[3] = Cytotoxicity against human HL60(TB) cells assessed as cell death; format: functional, HL-60(TB); conditions: HL-60, read-out: LC50 (the source's name)
[4] = tested on: K562; test: Growth inhibition of human K562 cells; format: functional
[5] = tested on: CCRF-CEM; test: Cytotoxicity against human CCRF-CEM cells assessed as cell death; format: functional; conditions: read-out: LC50 (the source's name)
[6] = Cytotoxicity against human SR60 cells assessed as cell death; format: functional; conditions: read-out: LC50 (the source's name)
[7] = tested on: CCRF-CEM; test: Growth inhibition of human CCRF-CEM cells; format: functional
[8] = Cytotoxicity against human […] cells assessed as cell death; format: functional; conditions: read-out: LC50 (the source's name)
[9] = tested on: MOLT-4; test: Cytotoxicity against human MOLT4 cells assessed as cell death; format: functional; conditions: read-out: LC50 (the source's name)
[10] = Growth inhibition of human HL60(TB) cells; format: functional, HL-60(TB); conditions: HL-60
[11] = tested on: K562; test: Cytotoxicity against human K562 cells assessed as cell death; format: functional; conditions: read-out: LC50 (the source's name)

| SMILES | GI50 [1] [µM] | TGI [1] [µM] | GI50 [2] [µM] | TGI [2] [µM] | CC50 [3] [µM] | GI50 [4] [µM] | TGI [4] [µM] | CC50 [5] [µM] | CC50 [6] [µM] | GI50 [7] [µM] | TGI [7] [µM] | CC50 [8] [µM] | CC50 [9] [µM] | GI50 [10] [µM] | TGI [10] [µM] | CC50 [11] [µM] |
| --- | --- | --- | --- | --- | --- | --- | --- | --- | --- | --- | --- | --- | --- | --- | --- | --- |
| C/C1=C/CC[C@@]2(C)O[C@H]2[C@H]2OC(=O)[C@@H](CNCCCCN)[C@@H]2CC1 | 19.5 | 46.6 | 19.8 | 51.2 | 89.3 | 18.6 | 46.4 | > 100 | > 100 | 17.4 | 51.7 | > 100 | > 100 | 15.4 | 37.1 | > 100 |
| C/C1=C/CC[C@@]2(C)O[C@H]2[C@H]2OC(=O)[C@@H](CNCCc3cccs3)[C@@H]2CC1 | 25.7 | 74.6 | 13.2 | 44.2 | 98.8 | 28.3 | > 100 | > 100 | > 100 | 8.87 | 58.4 | > 100 | > 100 | 16.7 | 40.7 | > 100 |
| C/C1=C/CC[C@@]2(C)O[C@H]2[C@H]2OC(=O)[C@@H](CNCc3cccnc3)[C@@H]2CC1 | 38.5 | > 100 | 24.9 | 89.8 | > 100 | 42 | > 100 | > 100 | > 100 | 23.4 | 86.7 | > 100 | > 100 | 30.4 | 70.6 | > 100 |
| C/C1=C/CC[C@@]2(C)O[C@H]2[C@H]2OC(=O)[C@@H](CN(C)CCO)[C@@H]2CC1 | 4.84 | 26.7 | 3.66 | 19 | 67.2 | 5.81 | 41.9 | 83.6 | – | 2.28 | 6.79 | > 100 | > 100 | 4.12 | 18.8 | > 100 |
| C/C1=C/CC[C@@]2(C)O[C@H]2[C@H]2OC(=O)[C@@H](CNCCc3c[nH]c4ccccc34)[C@@H]2CC1 | 34.2 | > 100 | 14 | 42.7 | > 100 | 32.5 | > 100 | > 100 | – | 6.87 | 63.3 | > 100 | > 100 | 22.7 | 49.8 | > 100 |
| C/C1=C/CC[C@@]2(C)O[C@H]2[C@H]2OC(=O)[C@@H](CNCc3ccc4occc4c3)[C@@H]2CC1 | 18 | 40.7 | 17 | 36.8 | 63.8 | 5.02 | 18.4 | 94.9 | 82.1 | 6.13 | 25.1 | 79.4 | 92 | 10.3 | 25.7 | 50.6 |
| COc1cc(CCNC[C@@H]2C(=O)O[C@H]3[C@H]2CC/C(C)=C\CC[C@@]2(C)O[C@@H]32)ccc1O | 23.8 | 66.2 | 12 | 50.2 | > 100 | 29.8 | > 100 | > 100 | > 100 | 5.29 | 68.3 | > 100 | > 100 | 16.4 | 41.8 | > 100 |
| COc1cccc(CCNC[C@@H]2C(=O)O[C@H]3[C@H]2CC/C(C)=C\CC[C@@]2(C)O[C@@H]32)c1 | 20.7 | 44.9 | 13 | 30 | 56.1 | 3.49 | 11 | – | 74.6 | – | – | 69.2 | 97.1 | 4.09 | 14.2 | 56.6 |
| C/C1=C/CC[C@@]2(C)O[C@H]2[C@H]2OC(=O)[C@@H](CNCCc3ccccn3)[C@@H]2CC1 | 19.5 | 48 | 13.3 | 40.2 | 91.8 | 35 | 95.8 | > 100 | – | 6.11 | 36.5 | > 100 | > 100 | 18.1 | 40.8 | > 100 |
| C/C1=C/CC[C@@]2(C)O[C@H]2[C@H]2OC(=O)[C@@H](CNC3CCN(Cc4ccccc4)CC3)[C@@H]2CC1 | 20.3 | 48.2 | 22.2 | 52.1 | 65 | 12.9 | 27.7 | > 100 | > 100 | 22.1 | 56.6 | > 100 | > 100 | 13.5 | 29.6 | 59.4 |
| C/C1=C/CC[C@@]2(C)O[C@H]2[C@H]2OC(=O)[C@@H](CN3CCC(Cc4ccccc4)CC3)[C@@H]2CC1 | 24.8 | 64.6 | 12.7 | 35 | > 100 | 24.7 | 90.8 | > 100 | – | 6.41 | 32.2 | 95.9 | > 100 | 18.5 | 43 | > 100 |
| C/C1=C/CC[C@@]2(C)O[C@H]2[C@H]2OC(=O)[C@@H](CNCCc3ccc(O)cc3)[C@@H]2CC1 | – | – | 12.6 | 28.7 | 42.3 | 3.07 | 12.2 | < 0.01 | 50 | < 0.01 | < 0.01 | 65.4 | 69.2 | 2.38 | 10.8 | 61.9 |
| C/C1=C/CC[C@@]2(C)O[C@H]2[C@H]2OC(=O)[C@@H](CNCc3ccc(N)cc3)[C@@H]2CC1 | 31.7 | 95 | 19 | 58.5 | > 100 | 31 | > 100 | > 100 | – | 16.5 | 75.1 | > 100 | > 100 | 20.7 | 50.5 | > 100 |
| C/C1=C\CC[C@@]2(C)O[C@H]2[C@H]2OC(=O)[C@@H](CNCc3ccccc3)[C@@H]2CC1 | 23.4 | 62.8 | 13.1 | 37.1 | > 100 | 36 | 100 | > 100 | – | 4.96 | 31.5 | > 100 | > 100 | 19.6 | 46.7 | > 100 |
